Laboratory results from patent US20220211796A1, “PEPTIDE ANTIBIOTICS AND METHODS OF USE THEREOF” (priority 2019, published 2022).
≈ marks a conversion by molar mass, not a printed value.

How the values were obtained:
HeLa cells = assay: Mammalian cytotoxicity (MTT) assay; conditions: 24 h, b121: concentrations up to 256 μg/ml
Description: Cervical cancer cells (HeLa) were cultured in Dulbecco's Modified Eagle's medium (DMEM) (Invitrogen #11995-073) supplemented with 10% bovine calf serum at 37° C., 5% CO2, and seeded (5×10^3 cells/well) in 96-well plate flat-bottomed plate for 24 h before the assay. […] After washing the cells with PBS, the cells were subjected to the standard yellow tetrazolium (3-(4,5-dimethylthiazol-2-yl)-2,5-diphenyltetrazolium bromide (MTT) assay protocol at final concentration of 0.5 mg/ml for 4 h in a humidified 5% CO2 atmosphere at 37° C. MTT solution was then aspirated, and the purple formazan crystals were resuspended in DMSO by incubation for 5 min at 37° C. The absorbance at 540 nm was then read using a microplate reader. Viability control (100% viability) was assigned to samples with only HeLa cells and DMEM media, 0% viability was assigned to samples with 1% added Triton-X-100 and no peptide. Experiments were performed as triplicates at different days.

[1] = read-out: Kd of vancomycin:D-Ala-D-Ala complex; cited from earlier work
[2] = relative to D-Ala-D-Ala precursor; cited from earlier work
[3] = test system: human red blood cells (hRBC); assay: Hemolytic activity; assay type: cell-based; conditions: 0.25% hRBC, 37° C., 1 h
Description: Fresh red human blood cells (hRBC) were washed and centrifuged at 3000 rpm for 5 min at 4° C. with PBS until a clear solution was obtained. Two-fold serial dilutions of each peptide in PBS from 0.5 μg/ml to 256 μg/ml were incubated with 0.25% (v/v) hRBC suspension at 37° C. for 1 h, and then centrifuged for 5 min at 3500 rpm in 96-well plate. 50 μl of the supernatant from each well was diluted with 50 μl pure water, and the OD at 415 nm was measured using microplate reader. Melittin at the same concentrations (200 μg/ml for complete lysis) was used as a positive control. Percent hemolysis was calculated according to the equation: […]
where complete hemolysis was defined as the average hemolysis of all wells containing a final concentration of melittin ranging from 50 to 400 μg/ml. Experiments were performed as triplicates at different days.

[4] = test system: low level vancomycin resistant E. faecium (vanB) ATCC 51299; assay: microbe, parasite or virus in culture
Description: (§1) The L-peptides identified from five different phage display libraries were catalogued as described previously and selected sequences were synthesized in D-enantiomeric form by SPPS for further investigation in several biological assays.
(§2) MICs were determined according to a 96-well microdilution protocol outlined by the Clinical and Laboratory Standard Institute (CLSI) guideline with modifications for peptide antibiotics reported by Wiegand et al.^35 Two-fold serial peptide dilutions were performed to go from 2560 μg/ml to 5 μg/ml in0.2% BSA and 0.01% acetic acid buffer in 96-well polypropylene plates (COSTAR, #3879). Dilution of bacterial suspensions (1:200) of different bacterial strains that were grown until 0.5 McFarland standard were prepared to obtain a final inoculum concentration of 8×10^5 CFU/ml in Mueller-Hinton broth.

E. coli ATCC 25992 = assay: microbe, parasite or virus in culture
Description: as §1, §2

[5] = test system: Methicillin-resistant S. aureus (MRSA) ATCC 43300; assay: microbe, parasite or virus in culture
Description: as §1, §2

S. aureus ATCC 6538 = assay: microbe, parasite or virus in culture
Description: as §1, §2

[6] = test system: high level vancomycin resistant E. faecium (vanA) ATCC 51559; assay: microbe, parasite or virus in culture
Description: as §1, §2

B. subtilis ATCC 6633 = assay: microbe, parasite or virus in culture
Description: as §1, §2

E. faecalis ATCC 29121 = assay: microbe, parasite or virus in culture
Description: as §1, §2

SMILES: CN[C@H](CC(C)C)C(=O)N[C@H]1C(=O)N[C@@H](CC(N)=O)C(=O)N[C@H]2C(=O)N[C@H]3C(=O)N[C@H](C(=O)N[C@H](C(=O)O)c4cc(O)cc(O)c4-c4cc3ccc4O)[C@H](O)c3ccc(c(Cl)c3)Oc3cc2cc(c3O[C@@H]2O[C@H](CO)[C@@H](O)[C@H](O)[C@H]2O[C@H]2C[C@](C)(N)[C@H](O)[C@H](C)O2)Oc2ccc(cc2Cl)[C@H]1O [P1, Vancomycin, reference compound]
- cytotoxicity on HeLa cells (HeLa cells): non-toxic
- Kd [1]: ~1000 nM
- reduction of binding affinity on D-alanine to D-lactate substitution [2]: ~1000 fold
- percentage hemolysis of hRBCs [3]: 0%
- MIC ([4]; Enterococcus faecium, ATCC51299 / VRE, read-out: MIC VRE (vanB)): 32 µg/mL (≈ 22.1 µM)
- MIC VRE (vanB) ([4]; Table 6, low level vancomycin resistant E. faecium ATCC51299): 32 µg/mL (≈ 22.1 µM)
- MIC (E. coli ATCC 25992; Escherichia coli, ATCC25992, read-out: MIC E. coli): > 256 µg/mL
- MIC E. coli (E. coli ATCC 25992; Table 6, E. Coli ATCC25992): >256 µg/mL
- MIC ([5]; Staphylococcus aureus, read-out: MIC MRSA): 0.5 µg/mL (≈ 0.345 µM)
- MIC MRSA ([5]; Table 6, MRSA ATCC43300): 0.5 µg/mL (≈ 0.345 µM)
- MIC (S. aureus ATCC 6538; Staphylococcus aureus, ATCC6538, read-out: MIC S. aureus): 0.5 µg/mL (≈ 0.345 µM)
- MIC S. aureus (S. aureus ATCC 6538; Table 6, S. aureus ATCC6538): 0.5 µg/mL (≈ 0.345 µM)
- activity against vanA / high-level vancomycin-resistant strain [6]: no activity
- MIC ([6]; Enterococcus faecium, ATCC51559 / VRE, read-out: MIC VRE (vanA)): > 256 µg/mL
- MIC VRE (vanA) ([6]; Table 6, high level vancomycin resistant E. faecium ATCC51559): >256 µg/mL
- MIC (B. subtilis ATCC 6633; Bacillus subtilis, ATCC6633, read-out: MIC B. subtilis): 0.5 µg/mL (≈ 0.345 µM)
- MIC B. subtilis (B. subtilis ATCC 6633; Table 6, B. subtilis ATCC6633): 0.5 µg/mL (≈ 0.345 µM)
- MIC (E. faecalis ATCC 29121; Enterococcus faecalis, ATCC29121, read-out: MIC E. faecalis): 1 µg/mL (≈ 0.69 µM)
- MIC E. faecalis (E. faecalis ATCC 29121; Table 6, E. faecalis ATCC29121): 1 µg/mL (≈ 0.69 µM)
